Data from publication PMC10974945, “Targeting MutT Homolog 1 (MTH1) for Breast Cancer Suppression by Using a Novel MTH1 Inhibitor MA−24 with Tumor-Selective Toxicity” (Pharmaceuticals, 2024).
Read-outs that look alike come from different tables or passages of the source. Each block holds one compound with its values, some of them ahead of it.

Experiments:
[1] = system: 4T1 breast cancer tumor; assay: 4T1 breast cancer tumor model in Balb/c mice; settings: for Ki67 expression / tumor cell proliferation in tumors / body weight compared to the control group: MA−24 60 mg/kg; for body weight compared to the control group: TH287 200 mg/kg i.p. every three days
Procedure: All animal experiments were carried out in accordance with a protocol approved by the Animal Ethics Committee of the China Pharmaceutical University. Female BALB/C mice were given food and water ad libitum. Approximately 7-week-old mice were injected subcutaneously with 2 × 10^5 4T1 cells in the left flank. When the mean tumor size reached 30~50 mm^3, vehicle (composed with 1% DMSO, 10% ethanol, 10% Chremophor EL, and 10% Tween-80, diluted with PBS), MTH1 inhibitor (MA−24 at 60 mg/kg or TH287 at 200 mg/kg), or 5-FU (30 mg/kg) was administered intraperitoneally every three days. Tumor size and body weights were measured twice weekly starting on the first day of treatment. Moreover, to minimize animal suffering, euthanasia by cervical dislocation was performed when the maximum diameter of the tumors exceeded 1 cm.

[2] = biological target: T1, MTH1 (Homo sapiens, UniProt P36639); assay: Target engagement by cellular thermal shift assay (CETSA) in MCF−7 cells; assay type: cell-based; settings: 50 μM, 4.5 h, 42 to 75 °C
Procedure: MCF−7 cells cultured in 6-well plates for 24 h were exposed to vehicle (0.5% DMSO) or 50 μM TH287 or MA−24 for 4.5 h. After trypsinization cells were detached, spun down and resuspended in PBS. Eight equational cells were heated for 3 min from 42 to 75 °C, and then lysed using RIPA lysis buffer. Western blot analysis was used to analyze the amounts of stabilized MTH1 using the MTH1 antibody.

[3] = biological target: T1, MTH1; assay: MTH1 enzymatic inhibition, malachite green colorimetric assay; assay type: biochemical
Procedure: MTH1, inorganic pyrophosphatase, and dGTP (Thermo Fisher Scientific, Waltham, MA, USA) were diluted in assay buffer containing 100 mM Tris-acetate at pH 8.0, 40 mM NaCl, 10 mM Mg-acetate, 0.005% Tween 20, and 1 mM DTT. Briefly, serial dilutions of compounds were dissolved in assay buffer; meanwhile, MTH1 was diluted to 4 μg/mL, and then these two solutions were mixed and filled with buffer to 186 µL. After 15 min incubation at 25 °C, 10 µL dGTP (final concentration […]) and 4 µL inorganic pyrophosphatase (final concentration 0.2 U/mL) were added to start the reaction. The reaction mixture was incubated with shaking for 45 min at 25°C. Finally, 50 µL of malachite green assay reagent was added and incubated with shaking for 15 min at 25 °C. The absorbance of the assay plate was read at 630 nm using a Multiskan GO Microplate Spectrophotometer (Thermo Fisher Scientific, Waltham, MA, USA) and IC50 values were calculated using GraphPad Prism 9.5.1 Software.

[4] = system: MDA-MB-231 cells; assay: MTT cell viability/proliferation assay, MDA-MB-231; assay type: cell-based; settings: Homo sapiens, read-out: IC50 on MDA-MB-231 proliferation (mean ± SD)
Procedure: (§1) Human breast cancer cell lines (MCF-7: ER+, PR+, HER2-, EGFR+, MB-MDA-MB-231: […] All cells were cultured in suitable medium supplemented with 10% fetal bovine serum (FBS; […] Biotechnology Co., Ltd., Hangzhou, China), 100 U/mL penicillin, and 100 μg/mL streptomycin (Invitrogen, Carlsbad, CA, USA) at 37 °C in 5% CO2. MCF-7, MB-MDA-MB-231, HEK-293F, and HUVEC were grown in Dulbecco's modified Eagle's medium (DMEM; […] Subsequently, cells were treated with compound or vehicle (maximum 0.3% DMSO). After 48 h, cells were treated with MTT; the absorbance of the assay plate was read at 490 nm using a Multiskan GO Microplate Spectrophotometer (Thermo Fisher Scientific, Waltham, MA, USA).

[5] = biological target: T1, MTH1; assay: Kinetic analysis of MTH1 inhibition (reciprocal plot); assay type: biochemical; settings: consistent 1/Vmax
[6] = system: MCF−7 cells; assay: Western blot of apoptosis and p38 MAPK proteins in MCF−7 cells; assay type: cell-based, human; settings: for expression of p38: high concentrations
From the text: Total protein was obtained using RIPA lysis buffer (Beyotime Biotechnology, Shanghai, China) supplemented with phenylmethanesulfonyl fluoride (Beyotime Biotechnology, Shanghai, China), separated by SDS-PAGE, and transferred to the PVDF membrane by electroblotting (Bio-Rad, Hercules, CA, USA) followed by blocking with 5% milk in TBST. MTH1 antibody (Cat.No.ab200832, Abcam, Eugene, OR, USA), β-actin antibody (Cat.No.ab8227; Abcam, Eugene, OR, USA), ccaspae-3 antibody (Cat.No.14220, CST, Boston, USA), cleaved caspase-3 antibody (Asp175) (Cat.No.9664, CST, Boston, MA, USA), cleaved PARP antibody (Asp214) (Cat.No.95696, CST, Boston, MA, USA), p38 (Cat.No.9212, CST, Boston, MA, USA), and phospho-p38 MAPK (Thr180/Tyr182) (Cat.No.9211, CST, Boston, MA, USA) were used at a dilution of 1:1000–1:5000. Upon addition of primary and HRP-conjugated secondary antibodies, blots were detected using an ECL substrate (Thermo Fisher Scientific, Waltham, MA, USA) and the Tanon 5200 Chemiluminescent Imaging System (Tanon, Shanghai, China).

[7] = system: MCF−7 cells; assay: Alkaline comet assay in MCF−7 cells; assay type: cell-based, human; settings: 10 μM, 2 days
Procedure: MCF−7 cells (300,000 cells) were plated in 6-well plates and incubated for 24 h at 37 °C and 5% CO2. Subsequently, cells were treated with a compound (10 μM MA−24 and TH287) or vehicle (0.1% DMSO) for 2 days or with 150 μM for 10 min on ice. Cells were harvested as above. After washing twice with PBS, cells were re-suspended in PBS. Then, the 30 μL cell suspension was mixed with 150 µL 1.2% low-melting agarose that was maintained at 37 °C. The mixture was layered onto pre-warmed (37 °C) agarose-coated glass slides. The slides were kept on ice for 10 min and incubated in lysis buffer (10 mM Tris pH 7.7, 2.5 M NaCl, 0.1 M EDTA, 1% DMSO, and 1% Triton X-100) at 4 °C overnight in the dark. Slides were washed twice with enzyme reaction buffer (40 mM HEPES pH 8.0, 0.1 M KCl, 0.5 mM EDTA, and 0.2 mg/mL BSA) and incubated with Fpg […] (8 U/mL, New England Biolabs, Shanghai, China) at 37 °C for 45 min. Slides were washed once with enzyme reaction buffer and incubated in alkaline electrophoresis buffer (50 mM NaOH, 1 mM EDTA, and 1% DMSO) for 20 min. […] Images were acquired with a fluorescence microscope (Olympus Corporation, Tokyo, Japan) and quantified using Comet Score software, Version 1.5. At least 100 comets per sample were analyzed. Tail moment is calculated as the percentage of DNA in the tail multiplied by the tail length.

[8] = system: CHO cells; assay: MTT cell viability/proliferation assay, CHO (immortalized); assay type: cell-based; settings: Cricetulus griseus, 48 h, read-out: IC50 on CHO proliferation (mean ± SD)
Procedure: as §1

[9] = system: HEK-293F cells; assay: MTT cell viability/proliferation assay, HEK-293F (immortalized); assay type: cell-based; settings: HEK293F, 48 h, read-out: IC50 on HEK-293F proliferation (mean ± SD)
Procedure: as §1

[10] = system: 4T1 cells; assay: MTT cell viability/proliferation assay, 4T1; assay type: cell-based, murine; settings: Mus musculus, read-out: IC50 on 4T1 proliferation (mean ± SD)
Procedure: as §1

[11] = system: HUVEC cells; assay: MTT cell viability/proliferation assay, HUVEC (immortalized); assay type: cell-based; settings: Homo sapiens, 48 h, read-out: IC50 on HUVEC proliferation (mean ± SD)
Procedure: as §1

[12] = system: MCF−7 cells; assay: MTT cell viability/proliferation assay, MCF−7; assay type: cell-based; settings: Homo sapiens; for IC50: read-out: IC50 against MCF−7 cell proliferation (mean ± SD); for inhibition at 200 µM: compound concentration 200 μM, read-out: Inhibition (%) (Mean ± SD) of MCF−7 cell proliferation
Procedure: as §1

[13] = parameters: method as in PMID 24695224; settings: in vitro studies; cited from earlier work
[14] = parameters: method as in PMID 25459754; settings: intraperitoneal injection, cited from earlier work
[15] = 5-FU 30 mg/kg i.p. every three days, 4T1 tumor
[16] = malachite green staining assay, dGTP substrate, read-out: IC50 to MTH1 (mean ± SD)

SMILES: O=c1[nH]cc(F)c(=O)[nH]1 [5-FU, 5-fluorouracil]
tumor growth inhibition rate ([1]; 30 mg/kg intraperitoneally every three days, 4T1 tumor): 81.9%
toxicity: mouse mortality ([1]; 5-FU 30 mg/kg i.p. every three days): mouse mortality starting from the 16th day of treatment
Ki67 expression / tumor cell proliferation in tumors [1, 15]: inhibitory effect on tumor cell proliferation

SMILES: CNc1cc(NCCc2ccc(C)cc2)nc(N)n1 [MA−24]
thermal stabilization of MTH1 (CETSA) [2]: prominent thermal stabilization
IC50 [3, 16]: 10.4 ± 0.28 nM
IC50 ([4]; MDA-MB-231, MTT assay, 48 h, cancer cell line): 48.4 ± 0.68 µM
type of inhibition on MTH1 with respect to dGTP [5]: competitive inhibition type
expression of cleaved-caspase 3 and cleaved PARP ([6]; 30 μM): upregulation of cleaved-caspase 3 and cleaved PARP
expression of p38 [6]: significantly reduce the expression of p38
DNA strand breaks (comet assay) [7]: significantly increased DNA strand breaks
IC50 ([8]; MTT assay, immortalized cells): ≥ 75 µM
IC50 ([9]; MTT assay, immortalized cells): ≥ 75 µM
IC50 ([10]; 4T1, MTT assay, 48 h, cancer cell line): 14.8 ± 1.42 µM
IC50 ([11]; MTT assay, immortalized cells): ≥ 75 µM
tumor growth inhibition rate ([1]; 60 mg/kg intraperitoneally every three days, 4T1 tumor): 61.8%
lung metastasis ([1]; MA−24 60 mg/kg i.p. every three days, 4T1 tumor): reduced lung metastasis
Ki67 expression / tumor cell proliferation in tumors [1, 15]: moderate reduction in Ki67 expression
body weight compared to the control group [1]: no statistically significant differences
IC50 ([12]; MCF7, MTT assay, 48 h): 23.9 ± 0.95 µM
inhibition at 200 µM ([12]; MCF7, MTT assay): 99.6 ± 0.4%

IC50 [3, 16]: 13.74 ± 0.1 nM
SMILES: CNc1cc(NCCc2ccc(F)cc2)nc(N)n1 [MA−25]
IC50 ([12]; MCF7, MTT assay, 48 h): 82.3 ± 1.02 µM
inhibition at 200 µM ([12]; MCF7, MTT assay): 100 ± 0.1%

SMILES: CNc1cc(-c2cccc(Cl)c2Cl)nc(N)n1 [TH287, reference compound]
stability in vitro compared to TH588 [13]: poorer stability
thermal stabilization of MTH1 (CETSA) [2]: increase the thermal stability of the MTH1 protein
IC50 [3]: 3.16 ± 0.03 nM
IC50 ([4]; MDA-MB-231, 48 h): 1.92 ± 0.34 µM
type of inhibition on MTH1 with respect to dGTP [5]: competitive inhibition type
expression of p38 [6]: significantly reduce the expression of p38
IC50 [8]: ≥ 25 µM
IC50 [9]: ≥ 25 µM
IC50 ([10]; 4T1, 48 h): 5.9 ± 1.02 µM
IC50 [11]: ≥ 25 µM
tumor growth inhibition rate ([1]; 200 mg/kg intraperitoneally every three days, 4T1 tumor): 20.4%
body weight compared to the control group [1]: no statistically significant differences
blood drug concentration at 2, 3, and 4 h ([14]; 5mg/kg, 2, 3, and 4 h): below the detection limit
blood drug concentration at 1 h ([14]; 5mg/kg, 1 h): 1 µM
IC50 ([12]; MCF7, 48 h): 3.55 ± 0.27 µM
